Test results from PubChem BioAssay AID248 (DTP/NCI, 2004).
Where “and” joins values, the source holds several entries; their conditions need not be identical. Identical values can stand only once. Toxic doses and inconclusive results are not listed. Cut-off read from the data, not from the text of the source: active = T/C of 150% or more; inactive = T/C below 125%.

Tested on: L1210 leukemia ip in BDF1 mice, survival T/C
Test: NCI In Vivo Anticancer Drug Screen. Data for tumor model L1210 Leukemia (intraperitoneal) in B6D2F1 (BDF1) mice
Conditions: endpoint: mean survival time, higher = longer survival
Outline: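 Value reflects the ratio of survival in compound-treated mice to survival in vehicle-treated controls, with both groups carrying the same transplanted tumor.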

[1] = dose: 100.0 mg/kg/injection, schedule: Q01DX009 (ip), vehicle: Klucel (hydroxypropylcellulose) (HPC)
[2] = dose: 200.0 mg/kg/injection, schedule: Q01DX009 (ip), vehicle: Klucel (hydroxypropylcellulose) (HPC)
[3] = dose: 100.0 mg/kg/injection, schedule: Q01DX001 (ip), vehicle: carboxymethylcellulose (CMC)
[4] = dose: 200.0 mg/kg/injection, schedule: Q01DX001 (ip), vehicle: carboxymethylcellulose (CMC)
[5] = dose: 200.0 mg/kg/injection, schedule: Q01DX009 (ip), vehicle: saline with Tween-80
[6] = dose: 100.0 mg/kg/injection, schedule: Q04DX003 (ip), vehicle: saline with Tween-80
[7] = dose: 200.0 mg/kg/injection, schedule: Q04DX003 (ip), vehicle: saline with Tween-80
[8] = dose: 400.0 mg/kg/injection, schedule: Q04DX003 (ip), vehicle: saline with Tween-80
[9] = dose: 400.0 mg/kg/injection, schedule: Q01DX009 (ip), vehicle: Klucel (hydroxypropylcellulose) (HPC)
[10] = dose: 50.0 mg/kg/injection, schedule: Q01DX001 (ip), vehicle: saline
[11] = dose: 100.0 mg/kg/injection, schedule: Q01DX001 (ip), vehicle: saline
[12] = dose: 200.0 mg/kg/injection, schedule: Q01DX001 (ip), vehicle: saline
[13] = dose: 400.0 mg/kg/injection, schedule: Q01DX001 (ip), vehicle: saline
[14] = dose: 100.0 mg/kg/injection, schedule: Q01DX009 (ip), vehicle: saline with Tween-80
[15] = dose: 400.0 mg/kg/injection, schedule: Q01DX001 (ip), vehicle: carboxymethylcellulose (CMC)

Measured: T/C

CCOC(=O)c1cnc2c(cnn2CC)c1NCC(C)C
inactive: dose: 50.0 mg/kg/injection, schedule: Q01DX009 (ip), vehicle: Klucel (hydroxypropylcellulose) (HPC) 100 % of control | [1] 100 % of control | [2] 103 % of control

NC(=O)C1(Nc2ccc(-c3ccc(NC4(C(N)=O)CCCC4)cc3)cc2)CCCC1
inactive: dose: 50.0 mg/kg/injection, schedule: Q01DX001 (ip), vehicle: carboxymethylcellulose (CMC) 95 % of control | [3] 90 % of control | [4] 93 % of control

O=C(NNCN1C(=O)c2ccccc2C1=O)c1ccccc1
inactive: [5] 90 % of control

Cc1ccc(S(=O)(=O)NC(C(=O)O)C(C)C)cc1 (stereo not given)
inactive: [6] 102 % of control | [7] 100 % of control | [8] 102 % of control

Cc1ccc(/C=C2/COC/C(=C\c3ccc(C)cc3)C2=O)cc1
inactive: dose: 6.0 mg/kg/injection, schedule: Q01DX009 (ip), vehicle: saline 96 % of control | dose: 12.0 mg/kg/injection, schedule: Q01DX001 (ip), vehicle: saline 88 % of control | dose: 12.0 mg/kg/injection, schedule: Q01DX009 (ip), vehicle: saline 94 % of control | dose: 25.0 mg/kg/injection, schedule: Q01DX001 (ip), vehicle: saline 93 % of control | dose: 25.0 mg/kg/injection, schedule: Q01DX009 (ip), vehicle: saline 109 % of control

CC(C)CC(C=NCC(CCN1CCOCC1)(CC(C)C)c1cccc2ccccc12)(CCN1CCOCC1)c1cccc2ccccc12 (stereo not given)
inactive: [1] 94 % of control | [2] 90 % of control | [9] 92 % of control

Cc1ccc(NC(=O)Oc2ccccc2C(=O)OCc2ccccc2)cc1
inactive: [1] 101 % of control | dose: 100.0 mg/kg/injection, schedule: Q04DX002 (ip), vehicle: Klucel (hydroxypropylcellulose) (HPC) 88 % of control | [2] 106 % of control | dose: 200.0 mg/kg/injection, schedule: Q04DX002 (ip), vehicle: Klucel (hydroxypropylcellulose) (HPC) 88 % of control | [9] 101 % of control | dose: 400.0 mg/kg/injection, schedule: Q04DX002 (ip), vehicle: Klucel (hydroxypropylcellulose) (HPC) 107 % of control

COC(=O)C(CCCN(C)C)(CCCN(C)C)c1cccc2ccccc12
inactive: [6] 96 % of control

c1cc[c]([Pb]([S]c2nc3ccccc3[nH]2)([c]2ccccc2)[c]2ccccc2)cc1
inactive: dose: 3.12 mg/kg/injection, schedule: Q04DX002 (ip), vehicle: gum acacia 104 % of control | dose: 6.25 mg/kg/injection, schedule: Q04DX002 (ip), vehicle: gum acacia 101 % of control | dose: 12.5 mg/kg/injection, schedule: Q04DX002 (ip), vehicle: gum acacia 97 % of control and 101 % of control

O=C1c2cc(Br)ccc2NC1(c1c[nH]c2ccc(Br)cc12)c1c[nH]c2ccc(Br)cc12
inactive: [10] 100 % of control | [11] 96 % of control | [12] 93 % of control | [13] 93 % of control

CCCCC/C(=C\c1ccccc1)C1OCC(CCl)O1 (stereo not given)
inactive: dose: 222.0 mg/kg/injection, schedule: Q01DX Z (ip), vehicle: saline 100 % of control | dose: 333.0 mg/kg/injection, schedule: Q01DX Z (ip), vehicle: saline 100 % of control | dose: 500.0 mg/kg/injection, schedule: Q01DX Z (ip), vehicle: saline 109 % of control

c1ccc(N(c2ccccc2)c2ccccc2)cc1
inactive: [1] 102 % of control | [14] 93 % of control | dose: 100.0 mg/kg/injection, schedule: Q04DX003 (ip), vehicle: Klucel (hydroxypropylcellulose) (HPC) 91 % of control | [6] 100 % of control | [2] 91 % of control | [5] 95 % of control | dose: 200.0 mg/kg/injection, schedule: Q04DX003 (ip), vehicle: Klucel (hydroxypropylcellulose) (HPC) 95 % of control | [7] 96 % of control | [9] 98 % of control | dose: 400.0 mg/kg/injection, schedule: Q01DX009 (ip), vehicle: saline with Tween-80 95 % of control | dose: 400.0 mg/kg/injection, schedule: Q04DX003 (ip), vehicle: Klucel (hydroxypropylcellulose) (HPC) 98 % of control | [8] 90 % of control

C[n+]1ccc(/C=C/c2ccnc3c(O)cccc23)c2ccccc21
inactive: dose: 15.0 mg/kg/injection, schedule: Q01DX001 (ip), vehicle: saline 112 % of control

CC(C)(C)NC[Si](C)(C)C
inactive: dose: 100.0 mg/kg/injection, schedule: Q01DX009 (ip), vehicle: saline 92 % of control

COc1ccc(NC(=O)C(Cl)Cl)cc1NC(C)=O
inactive: [3] 96 % of control | [4] 108 % of control | [15] 91 % of control

COS(=O)(=O)CCC[N+](C)(C)C
inactive: [10] 93 % of control

CC(C)(CCCO)c1ccccc1
inactive: dose: 50.0 mg/kg/injection, schedule: Q01DX009 (ip), vehicle: saline with Tween-80 96 % of control | [14] 104 % of control

Cc1cccc(SC(=O)Cc2ccc([N+](=O)[O-])cc2)c1
inactive: [14] 91 % of control | [6] 109 % of control | [5] 96 % of control | [7] 102 % of control | [8] 119 % of control

C=C(C)C1(Cc2ccccc2)C(=O)NC(=S)NC1=O
inactive: dose: 9.38 mg/kg/injection, schedule: Q01DX001 (ip), vehicle: saline 91 % of control | dose: 10.0 mg/kg/injection, schedule: Q01DX001 (ip), vehicle: saline 102 % of control

Cn1c(C[N+](C)(C)C)cc2ccccc21
inactive: [6] 104 % of control | [7] 96 % of control

CCc1nc(N)nc(N)c1-c1ccc(Cl)cc1.[O]=[Zn]
inactive: dose: 15.0 mg/kg/injection, schedule: Q01DX015 (ip), vehicle: carboxymethylcellulose (CMC) 96 % of control | dose: 30.0 mg/kg/injection, schedule: Q01DX015 (ip), vehicle: carboxymethylcellulose (CMC) 96 % of control | dose: 60.0 mg/kg/injection, schedule: Q01DX015 (ip), vehicle: carboxymethylcellulose (CMC) 123 % of control | [3] 92 % of control | dose: 120.0 mg/kg/injection, schedule: Q01DX015 (ip), vehicle: carboxymethylcellulose (CMC) 124 % of control | [4] 93 % of control

CCN(C(=O)Nc1cccc2ccccc12)c1ccccc1C
inactive: dose: 100.0 mg/kg/injection, schedule: Q01DX009 (ip), vehicle: gum acacia 100 % of control | dose: 100.0 mg/kg/injection, schedule: Q04DX003 (ip), vehicle: gum acacia 98 % of control | dose: 200.0 mg/kg/injection, schedule: Q01DX009 (ip), vehicle: gum acacia 96 % of control | dose: 200.0 mg/kg/injection, schedule: Q04DX003 (ip), vehicle: gum acacia 98 % of control | dose: 400.0 mg/kg/injection, schedule: Q01DX009 (ip), vehicle: gum acacia 86 % of control | dose: 400.0 mg/kg/injection, schedule: Q04DX003 (ip), vehicle: gum acacia 96 % of control

CC1(C)N=C(N)N=C(N)N1c1cccc(OCCOc2ccc(NC(=O)/C=C/C(=O)O)cc2)c1
inactive: [3] 101 % of control | [4] 97 % of control | [15] 94 % of control

Oc1ccccc1-n1c(-c2ccccc2)ccc1-c1ccccc1
inactive: [10] 90 % of control | [11] 98 % of control | [12] 102 % of control | [13] 98 % of control

CN(C)CCC[N+]1([O-])c2ccccc2CCc2ccccc21
inactive: dose: 9.37 mg/kg/injection, schedule: Q01DX009 (ip), vehicle: saline 102 % of control | dose: 18.75 mg/kg/injection, schedule: Q01DX009 (ip), vehicle: saline 108 % of control | dose: 18.75 mg/kg/injection, schedule: Q04DX003 (ip), vehicle: saline 102 % of control | dose: 37.5 mg/kg/injection, schedule: Q01DX009 (ip), vehicle: saline 97 % of control | dose: 37.5 mg/kg/injection, schedule: Q04DX003 (ip), vehicle: saline 96 % of control | dose: 75.0 mg/kg/injection, schedule: Q01DX009 (ip), vehicle: saline 102 % of control | dose: 75.0 mg/kg/injection, schedule: Q04DX003 (ip), vehicle: saline 96 % of control | dose: 150.0 mg/kg/injection, schedule: Q04DX003 (ip), vehicle: saline 88 % of control

COC(=O)c1cc(C)[nH]c2c(C)cc3nc4ccccc4c3c12
inactive: [10] 95 % of control | [11] 98 % of control | [12] 101 % of control | [13] 104 % of control

CC(C)=NOC(=O)Nc1ccc2c(c1)OCO2
inactive: [6] 109 % of control | [7] 97 % of control | [8] 101 % of control

c1ccc(N=C(c2ccccc2)c2ccccc2)cc1
inactive: [10] 102 % of control | [11] 98 % of control | [12] 98 % of control | [13] 102 % of control

CCOC(COC(=O)c1ccccc1C(=O)O)c1ccccc1 (stereo not given)
inactive: [6] 94 % of control | [7] 97 % of control | [8] 92 % of control
